# Measurements published in US20030091975A1, “Multiple determinants for metabolic phenotypes” (priority 2001, published 2003).
# Marks after values point to notes of the source that are not given here.
# Assays:
# Type in all cases: binding, rabbit
# 1,7-DMU-Ab = test: Competitive antigen ELISA, antibody specificity of 1,7-DMU-Ab; settings: ideal antibody specificity result hypothesized; 0 = no inhibition or no higher than 40% at 5×10^−3 M
# Method: (§1) BSA, antibodies, Tween™ 20 and horse radish peroxidase are added to buffers and water just prior to use. Urine samples are usually collected four hours after drinking a cup of coffee (instant or brewed with approximately 100 mg of caffeine per cup) and stored at −20° C. as 1-mL aliquots in 1.5-mL microtubes. For the ELISA, the urine samples are diluted with isotonic sodium phosphate buffer, pH 7.5 (310 mosM) to give concentrations of caffeine, 1.7-DMX and 1,7-DMU no higher than 3×10^−6 M in the microtiter plate wells. Wells of the ELISA plate are washed with a Nunc-Immuno wash 12 washer. Sixteen milliliters of a solution of 6.6 μg ml^−1 of isolated IgG antibodies is prepared in a 100 mM sodium carbonate buffer, pH 9.6, and 150 μL of this solution is pipetted in each well of a microtiter plate using a eight channel pipet (Brinkmann Transferpette™-8 50-200 μL) and 200 μL Flex tips from Brinkmann). After coating the wells with antibodies at 4° C. for 20 hours, the wells are washed 3 times with the isotonic sodium phosphate buffer containing 0.05% Tween™ 20 (IPBT) and properly drained by inverting the plate and absorbing the liquid on to a piece of paper towel. Thirty milliliters of a solution of a IPBT solution containing 1% BSA is prepared and 150 μL of this solution is pipetted in each well using a eight channel pipet (Brinkmann Transferpette ™-8 50-200 μL) and 200 μL yellow tips (Sarstedt yellow tips for P200 Gilson Pipetman). After 3 hours at room temperature, the wells are washed 3 times with IPBT solution and drained. Samples of 400 μL for determination of caffeine, 1,7-DMX and 1,7-DMU are prepared in 1.5-mL microtubes using Sarstedt yellow tips and a P200 Gilson Pipetman. Then, 200 μL of each sample are pipetted in duplicate in a Falcon 96-well microtest tissue culture plate according to the pattern shown in FIG. 22, using Sarstedt yellow tips and a P200 Gilson Pipetman. Using an eight channel pipet (Brinkmann Transferpette™-8 50-200 μL) and changing the tips of the eight channel pipet (200μL Flex tips from Brinkmann) at each row, 150 μL of samples are transferred in the corresponding wells of a 96-well ELISA microtiter plate coated with antibodies. After the addition of the samples, the microtiter plates are covered and left standing at room temperature for 2 h. While the plate is left standing the substrate buffer without the hydrogen peroxide and o-phenylenediamine hydrochloride is prepared (25 mM citric acid and 50 mM sodium phosphate dibasic buffer, pH 5.0). The microtiter plate is washed 3 times with the IPBT solution and 3 times with a 0.05% Tween™ 20 solution and drained. Then, 50 μL of hydrogen peroxide and 40 mg of o-phenylenediamine are added to the substrate buffer. One hundred fifty microliters (150 μL) of the substrate buffer solution is then added to each well using a eight channel pipet (Brinkmann Transferpette™-8 50-200 μL) and 200 μL Flex tips (Brinkmann). The microtiter plate is covered and shaken for 25-30 min at room temperature and the enzymatic reaction is stopped by adding 50 μL/well of a 2.5 N HCl solution using an eight channel pipet (Brinkmann Transferpette™-8 50-200 μL) and 200L Flex tips (Brinkmann).
# 1,7-DMX-Ab = test: Competitive antigen ELISA, antibody specificity of 1,7-DMX-Ab; settings: ideal antibody specificity result hypothesized; 0 = no inhibition or no higher than 40% at 5×10^−3 M
# Method: as §1
# Caffeine-Ab = test: Competitive antigen ELISA, antibody specificity of caffeine-Ab; settings: ideal antibody specificity result hypothesized; 0 = no inhibition or no higher than 40% at 5×10^−3 M
# Method: as §1
# AAMU-Ab = test: Competitive antigen ELISA, cross-reactivity of AAMU-Ab; settings: 0 = absence of inhibition or inhibition no higher than 40% at the highest concentration tested (5×10^−3 M)
# Method: (§2) Buffers and water without additives are filtered through millipore filters and kept for 1 week. BSA, antibodies, Tween™ 20 and horse radish peroxidase conjugates are added to these buffers and water just prior to use. Urine samples are usually collected 4 hours after drinking a cup of coffee (instant or brewed with approximately 100 mg of caffeine per cup) and stored at −80° C. The urine samples are diluted 10 times with sodium phosphate buffer (620 mosm, pH 7.50) and are subsequently diluted with water to give concentrations of AAMU and 1X no higher than 3×10^−6 M in the ELISA. All the pipettings are done with an eight-channel pipette, except those of the antibody and sample solutions. Starting with the last well, 100 μL of a carbonate buffer (100 mM, pH 9.6) containing 2.5 μg mL-1 antibodies are added to each well. After 90 min. at room temperature, the wells are washed three times with […] of TPB: isotonic sodium phosphate buffer (310 mosm, pH 7.50) containing 0.05% Tween™ 20.
# (§3) After the initial wash, unoccupied sites are blocked by incubation for 90 min. at room temperature with 100 μL TBP containing 3% BSA. The wells are washed four times with 100 μL TPB. […] The microplate is gently shaken with an orbital shaker at room temperature for 3-4 hours. The wells are washed three times with 100 μL TPB containing 1% BSA and three times with water containing 0.05% Tween ™ 20. To the washed plate is added 150 μL of a substrate buffer composed of citric acid (25 mM) and sodium phosphate dibasic buffer (50 mM, pH 5.0) containing 0.06% hydrogen peroxide and 0.04% o-phenylenediamine hydrochloride.
# (§4) Buffers and water without additives were filtered through millipore filters and kept for 1 week. BSA, antibodies, Tween ™ 20 and horse radish peroxidase conjugates were added to these buffers and water just prior to use. Urine samples were usually collected 4 hours after drinking a cup of coffee (instant or brewed with approximately 100 mg of caffeine per cup) and stored at 80° C. They were diluted 10 times with sodium phosphate buffer (620 mosm, pH 7.50) and were subsequently diluted with water to give concentrations of AAMU and 1X no higher than 3×10^−6 M in the ELISA. All the pipettings were done with an eight-channel pipette, except those of the antibody and sample solutions. Starting with the last well, 100 μL of a carbonate buffer (100 mM, pH 9.6) containing 2.5 μg mL^−1 antibodies was pipetted. After 90 min. at room temperature, the wells were washed three times with 100 μL of TPB: isotonic sodium phosphate buffer (310 mosm, pH 7.50) containing 0.05% Tween™ 20.
# (§5) After the initial wash, unoccupied sites were blocked by incubation for 90 min. at room temperature with 100 μL TBP containing 3% BSA. The wells were washed four times with 100 μL TPB. […] The microplate was gently shaken with an orbital shaker at room temperature for 3-4 hours. The wells were washed three times with 100 μL with TPB containing 1% BSA and three times with water containing 0.05% Tween™ 20. To the washed plate was added 150 μL of a substrate buffer composed of citric acid (25 mM) and sodium phosphate dibasic buffer (50 mM, pH 5.0) containing 0.06% hydrogen peroxide and 0.04% o-phenylenediamine hydrochloride. After 20 min. at room temperature with shaking, the reaction was stopped with 50 μL of 2.5 N HCl.
# (§6) The cross reactivities of AAMU-Ab and 1X-Ab were tested using a wide variety of caffeine metabolites and structural analogs (Table 5 below).
# 1X-Ab = test: Competitive antigen ELISA, cross-reactivity of 1X-Ab; settings: for % Cross-Reaction 1X-Ab: 0 = absence of inhibition or inhibition no higher than 40% at the highest concentration tested (5×10^−3 M)
# Method: as §2, §3, §4, §5, §6
Compound,"% Cross-reaction 1,7-DMU-Ab (1,7-DMU-Ab)","% Cross-reaction 1,7-DMX-Ab (1,7-DMX-Ab)",% Cross-reaction Caffeine-Ab (Caffeine-Ab),% Cross-Reaction AAMU-Ab (AAMU-Ab),% Cross-Reaction 1X-Ab (1X-Ab),"IC50 (1X-Ab; read-out: concentration required for 50% inhibition in the competitive antigen ELISA, 1X-Ab)"
"Cn1c(=O)c2c([nH]c(=O)n2C)n(C)c1=O [1,3,7-Trimethyluric acid]",0%,0%,0%,,,
"Cn1c(=O)[nH]c2nc[nH]c2c1=O [1-Methyl Xanthine (1X), 1-Methyl Xanthine]",0%,0%,0%,0%,100%,10 µM
"Cn1c(=O)[nH]c2[nH]c(=O)n(C)c2c1=O [1,7-Dimethyluric acid]",100%,0%,0%,0%,0%,
"Cn1c(=O)[nH]c2ncn(C)c2c1=O [1,7-Dimethyl Xanthine (Paraxanthine), 1,7-Dimethyl Xanthine]",0%,100%,0%,0%,0.5%,
"Cn1c(=O)c2c(ncn2C)n(C)c1=O [1,3,7-Trimethyl Xanthine (Caffeine), 1,3,7-Trimethyl Xanthine]",0%,0^a %,100%,0%,0%,
Cn1c(=O)[nH]c(=O)c2[nH]c(=O)[nH]c21 [3-Methyluric acid],0%,0%,0%,,,
"Cn1c(=O)c2[nH]c(=O)[nH]c2n(C)c1=O [1,3-Dimethyluric acid]",0%,0%,0%,,,
"Cn1c(=O)c2[nH]cnc2n(C)c1=O [1,3-Dimethyl Xanthine (Theophylline), 1,3-Dimethyl Xanthine]",0%,0%,0%,0%,0.2%,
Cc1nc2[nH]c(=O)[nH]c(=O)c2[nH]1 [8-Methyl Xanthine],0%,0%,0%,0%,0%,
O=c1[nH]cnc2nc[nH]c12 [Hypoxanthine],0%,0%,0%,0%,0%,
CC(=O)Nc1c(N)[nH]c(=O)[nH]c1=O [5-Acetamino-6-amino-uracil],0%,0%,0%,0.6%,0%,
Nc1nc2nc[nH]c2c(=O)[nH]1 [Guanine],0%,0%,0%,0%,0%,
O=c1cc[nH]c(=O)[nH]1 [Uracil],0%,0%,0%,0%,0%,
"Cn1c(=O)[nH]c(=O)c2c1[nH]c(=O)n2C [3,7-Dimethyluric acid]",0%,0%,0%,,,
Cn1c(=O)[nH]c2[nH]c(=O)[nH]c(=O)c21 [7-Methyluric acid],0%,0%,0%,,,
"CC(=O)Nc1c(N)n(C)c(=O)n(C)c1=O [5-Acetamino-6-amino-1,3-dimethyluracil]",0%,0%,0%,0%,0%,
Cn1c(=O)[nH]c2[nH]c(=O)[nH]c2c1=O [1-Methyluric acid],0%,0%,0%,0%,11%,
